Test results from article PMC12155888, “Design, Synthesis, and Antitumor Biological Evaluation of Galaxamide and Its Analogs” (Molecules, 2025).
Values after ≈ are worked out from the molar mass of the structure shown. Values joined by “and” are separate entries in the source; they are usually repeats but may differ in a detail not shown here. Equal entries are not always repeated. Where two headings read alike, the source gives them in different places. Where a SMILES comes first, the peptide text is derived from it. [ ]: non-standard residue; d: D form. dPhg = N[C@@H](C(=O)O)c1ccccc1; NMeL = CN[C@@H](CC(C)C)C(=O)O; dNMeL = CN[C@H](CC(C)C)C(=O)O

Legend:
A549 = format: cell-based, human
Text: (§1) Since the antitumor activity of natural galaxamide is good, we are interested in the antitumor potential of the obtained new analogs. To examine the anticancer activities of galaxamide and its analogs, two different human cancer cell lines, human non-small-cell lung cancer cells (A549) and human chronic myelogenous leukemia (K562), and one normal human cell line, human immortal embryonic kidney cells (293T), were selected for the in vitro cell models. […] The synthetic galaxamide (Gala01) was also tested as the standard. […] It was also found […] the best selectivity and highest safety and is thus worthy of further development for anticancer drugs for K562. A549, K562, and 293T cells were purchased from the Cell Resource Center of the Institute of Basic Medicine, Chinese Academy of Medical Sciences. Both A549 cells and K562 cells were cultured in RPMI (full name: Roswell Park Memorial Institute) 1640 medium containing 10% FBS (full name: fetal bovine serum, product number: C04001-500, Vivacell, Shanghai, China) and 1% p/s (full name: penicillin-streptomycin, product number: 15140122, Gbico, Waltham, MA, USA) for culture. The 293T cells were all cultured in DMEM (full name: Dulbecco's Modified Eagle Medium; cat. no.: C3113-0500, Vivacell, ShanghaiChina; containing 10% FBS and 1% p/s) for cultivation. […] Multiple types of cells were seeded into 96-well plates and treated with different concentrations of […]26 for 48 h after they returned to normal. Then, the relative activity of the cells was detected according to the instructions of the CCK-8 kit (item number: MA0218, Meilunbio, Dalian, China) and analyzed and calculated using GraphPad Prism 8.0.1 software.

293T = format: cell-based, human; details: 48 h
Text: as §1

[1] = tested on: human hepatocellular carcinoma Hep G2; set-up: method as in PMID 18816120; details: human hepatocellular carcinoma Hep G2 cell line; cited from earlier work
[2] = tested on: human renal cell carcinoma GRC-1; set-up: method as in PMID 18816120; details: human renal cell carcinoma GRC-1 cell line; cited from earlier work
K562 = format: cell-based, human
Protocol: To examine the anticancer activities of galaxamide and its analogs, two different human cancer cell lines, human non-small-cell lung cancer cells (A549) and human chronic myelogenous leukemia (K562), and one normal human cell line, human immortal embryonic kidney cells (293T), were selected for the in vitro cell models. […] The synthetic galaxamide (Gala01) was also tested as the standard. […] A549, K562, and 293T cells were purchased from the Cell Resource Center of the Institute of Basic Medicine, Chinese Academy of Medical Sciences. Both A549 cells and K562 cells were cultured in RPMI (full name: Roswell Park Memorial Institute) 1640 medium containing 10% FBS (full name: fetal bovine serum, product number: C04001-500, Vivacell, Shanghai, China) and 1% p/s (full name: penicillin-streptomycin, product number: 15140122, Gbico, Waltham, MA, USA) for culture. The 293T cells were all cultured in DMEM (full name: Dulbecco's Modified Eagle Medium; cat. no.: C3113-0500, Vivacell, ShanghaiChina; containing 10% FBS and 1% p/s) for cultivation. […] Multiple types of cells were seeded into 96-well plates and treated with different concentrations of […]26 for 48 h after they returned to normal. Then, the relative activity of the cells was detected according to the instructions of the CCK-8 kit (item number: MA0218, Meilunbio, Dalian, China) and analyzed and calculated using GraphPad Prism 8.0.1 software.

[3] = human non-small-cell lung cancer cells A549, 48 h, CCK-8, unit given in the text, not in Table 2, read-out: IC50 A549
[4] = normal human embryonic kidney cells 293T, CCK-8, NA = not determined due to low inhibitory activity, read-out: IC50 293T
[5] = human chronic myelogenous leukemia K562, 48 h, CCK-8, unit given in the text, not in Table 2, read-out: IC50 K562

Molecule | IC50 (K562; 48 h) [µM] | IC50 (A549; 48 h) [µM] | IC50 (293T) [µM] | also measured
CC(C)C[C@@H]1C(=O)N[C@H](CC(C)C)C(=O)N[C@H](CC(C)C)C(=O)N(C)[C@H](CC(C)C)C(=O)N[C@H](CC(C)C)C(=O)N1C [Gala01, Cyclo(Me-D-Leu-D-Leu-D-Leu-Me-D-Leu-D-Leu)] (cyclo([dL][dL][dNMeL][dL][dNMeL])) |  |  |  | IC50 (A549; [3]): 14 µM; IC50 (293T; [4]): 19.9 µM; IC50 Hep G2 [1]: 4.63 µg/mL (≈ 7.8 µM); IC50 GRC-1 [2]: 4.26 µg/mL (≈ 7.17 µM); IC50 (K562; [5]): > 80 µM
CC(C)C[C@@H]1NC(=O)[C@@H](CC(C)C)N(C)C(=O)[C@H](CC(C)C)NC(=O)[C@@H](CC(C)C)N(C)C(=O)[C@@H](CC(C)C)NC1=O [Gala04, Cyclo(Me-D-Leu-L-Leu-D-Leu-Me-D-Leu-L-Leu)] (cyclo(L[dL][dNMeL]L[dNMeL])) |  |  |  | IC50 (A549; [3]): 19 µM; IC50 (293T; [4]): 16.3 µM; IC50 (K562; [5]): 4.19 µM and 4.2 µM
COC[C@H]1NC(=O)[C@H](CC(C)C)NC(=O)[C@H](CC(C)C)N(C)C(=O)[C@H](CC(C)C)NC(=O)[C@H](CC(C)C)N(C)C1=O [Gala12, Cyclo(Me-L-Leu-L-Leu-O-Me-D-Ser-Me-L-Leu-L-Leu)] (cyclo(L[NMeL]L[dS](Me)[NMeL])) | 61.8 |  | 14.1 | 
CC(C)C[C@@H]1NC(=O)[C@H](CC(C)C)N(C)C(=O)[C@H](CC(C)C)NC(=O)[C@H](CC(C)C)N(C)C(=O)[C@@H](c2ccccc2)NC1=O [Gala20, Cyclo(Me-L-Leu-L-Leu-D-phenyl-Gly-Me-L-Leu-L-Leu)] (cyclo(L[NMeL]L[dPhg][NMeL])) | > 80 | > 20 |  | 
CC(C)C[C@@H]1NC(=O)[C@H](CC(C)C)N(C)C(=O)[C@H](CC(C)C)NC(=O)[C@H](CC(C)C)N(C)C(=O)[C@@H](C(C)C)NC1=O [Gala21, Cyclo(Me-L-Leu-L-Leu-D-Val-Me-L-Leu-L-Leu)] (cyclo([NMeL]L[dV][NMeL]L)) | 49.3 | > 20 |  | 
(−)-β-elemene [reference compound] |  |  |  | IC50 (A549; [3]): > 100 µM; IC50 (293T; [4]): > 100 µM; IC50 (K562; [5]): > 100 µM

Second part, led by results:

IC50 (K562; 48 h) [µM] | IC50 (A549; 48 h) [µM] | Molecule | IC50 (293T) [µM] | also measured
33.8 |  | CC(C)C[C@@H]1NC(=O)[C@H](CC(C)C)N(C)C(=O)[C@H](CC(C)C)NC(=O)[C@H](CC(C)C)N(C)C(=O)[C@@H](C)NC1=O [Gala11, Cyclo(Me-L-Leu-L-Leu-D-Ala-Me-L-Leu-L-Leu)] (cyclo([NMeL]L[dA][NMeL]L)) | 13.3 | 
29.6 | 20 | COC(=O)C[C@H]1NC(=O)[C@H](CC(C)C)NC(=O)[C@H](CC(C)C)N(C)C(=O)[C@H](CC(C)C)NC(=O)[C@H](CC(C)C)N(C)C1=O [Gala14, Cyclo(Me-L-Leu-L-Leu-Methylester-D-Asp-Me-L-Leu-L-Leu)] (cyclo(L[NMeL]L[dD](OMe)[NMeL])) | 22.2 | 
24.2 |  | CC(C)C[C@@H]1NC(=O)[C@H](CC(C)C)N(C)C(=O)[C@H](CC(C)C)NC(=O)[C@H](CC(C)C)N(C)C(=O)[C@@H](Cc2ccc(Br)cc2)NC1=O [Gala18, Cyclo(Me-L-Leu-L-Leu-4-Bro-D-Phe-Me-L-Leu-L-Leu)] | 14.1 | 
8.5 |  | CSCC[C@H]1NC(=O)[C@H](CC(C)C)NC(=O)[C@H](CC(C)C)N(C)C(=O)[C@H](CC(C)C)NC(=O)[C@H](CC(C)C)N(C)C1=O [Gala22, Cyclo(Me-L-Leu-L-Leu-D-Met-Me-L-Leu-L-Leu)] (cyclo(L[NMeL]L[dM][NMeL])) | 12.9 | 
6.9 | > 20 | Cc1cccc(C[C@H]2NC(=O)[C@H](CC(C)C)NC(=O)[C@H](CC(C)C)N(C)C(=O)[C@H](CC(C)C)NC(=O)[C@H](CC(C)C)N(C)C2=O)c1 [Gala23, Cyclo(Me-L-Leu-L-Leu-3-Me-D-Phe-Me-L-Leu-L-Leu)] |  | 
